Test results from ChEMBL document CHEMBL5329197, “Harvesting phosphorus-containing moieties for their antibacterial effects” (Bioorg Med Chem, 2023).
Values after ≈ are worked out from the molar mass of the structure shown. One block for each compound: values may come before it.

How the values were obtained:
[1] = system: Staphylococcus aureus; assay: Antibacterial activity against methicillin-resistant Staphylococcus aureus assessed as reduction in bacterial cell growth incubated for 24 hrs by broth microdilution method; assay type: functional
[2] = system: Escherichia coli; assay: Antibacterial activity against Escherichia coli assessed as reduction in bacterial growth; assay type: functional
[3] = system: Pseudomonas aeruginosa; assay: Antibacterial activity against Pseudomonas aeruginosa assessed as reduction in bacterial growth; assay type: functional
[4] = system: Enterococcus durans; assay: Antibacterial activity against Enterococcus durans assessed as reduction in bacterial growth; assay type: functional
[5] = system: Bacillus subtilis; assay: Antibacterial activity against Bacillus subtilis assessed as reduction in bacterial growth; assay type: functional
[6] = system: Enterococcus faecalis; assay: Antibacterial activity against Enterococcus faecalis assessed as bacterial growth inhibition; assay type: functional
[7] = system: Klebsiella pneumoniae; assay: Antibacterial activity against carbapenem resistance Klebsiella pneumoniae ATCC BAA-1705 assessed as inhibition of microbial growth measured after 24 hrs by microplate reader analysis; assay type: functional
[8] = system: Escherichia coli; assay: Antibacterial activity against Escherichia coli ATCC 8730 assessed as reduction in bacterial cell growth measured after 24 hrs by microplate reader based analysis; assay type: functional
[9] = system: Enterococcus faecium; assay: Antibacterial activity against Enterococcus faecium assessed as bacterial growth inhibition; assay type: functional
[10] = system: Staphylococcus aureus; assay: Antibacterial activity against methicillin-resistant Staphylococcus aureus assessed as inhibition of cell growth; assay type: functional
[11] = Binding affinity to D-Ala-D-Ala assessed as dissociation constant
[12] = Binding affinity to Escherichia coli ThiM TPP riboswitch assessed as dissociation constant
[13] = system: Klebsiella aerogenes; assay: Antibacterial activity against Enterobacter aerogenes assessed as zone of inhibition; assay type: functional
[14] = system: Escherichia coli; assay: Antibacterial activity against Escherichia coli assessed as zone of inhibition; assay type: functional
[15] = Binding affinity to Sporosarcina pasteurii Urease assessed as inhibition constant
[16] = system: Acinetobacter baumannii; assay: Antibacterial activity against Acinetobacter baumannii assessed as reduction in microbial growth measured after 24 hrs by Mueller-Hinton broth based two-fold serial dilution method; assay type: functional
[17] = system: Escherichia coli; assay: Antibacterial activity against Escherichia coli ATCC 25922 assessed as reduction in microbial growth measured after 24 hrs by Mueller-Hinton broth based two-fold serial dilution method; assay type: functional
[18] = system: Bacillus cereus; assay: Antibacterial activity against Bacillus cereus assessed as reduction in microbial growth measured after 24 hrs by Mueller-Hinton broth based two-fold serial dilution method; assay type: functional
[19] = system: Candida albicans; assay: Antibacterial activity against Candida albicans assessed as reduction in microbial growth measured after 24 hrs by Mueller-Hinton broth based two-fold serial dilution method; assay type: functional
[20] = system: Staphylococcus aureus; assay: Antibacterial activity against Staphylococcus aureus ATCC 25900 assessed as reduction in microbial growth measured after 24 hrs by Mueller-Hinton broth based two-fold serial dilution method; assay type: functional
[21] = system: Pseudomonas aeruginosa; assay: Antibacterial activity against Pseudomonas aeruginosa ATCC 27853 assessed as reduction in microbial growth measured after 24 hrs by Mueller-Hinton broth based two-fold serial dilution method; assay type: functional
[22] = Inhibition of GIM1 (unknown origin)
[23] = system: Pseudomonas aeruginosa; assay: Antibacterial activity against Pseudomonas aeruginosa assessed as inhibition of bacterial growth measured after 24 hrs by CLSI-based microdilution method; assay type: functional
[24] = system: Escherichia coli; assay: Antibacterial activity against Escherichia coli assessed as reduction in bacterial growth measured after 24 hrs by CLSI-based Mueller-Hinton broth dilution method; assay type: functional
[25] = system: Staphylococcus aureus; assay: Antibacterial activity against Staphylococcus aureus assessed as inhibition of bacterial growth measured after 24 hrs by CLSI-based microdilution method; assay type: functional
[26] = system: Klebsiella pneumoniae; assay: Antibacterial activity against Klebsiella pneumonia assessed as inhibition of bacterial growth measured after 24 hrs by CLSI-based microdilution method; assay type: functional
[27] = system: Enterococcus faecalis; assay: Antibacterial activity against Enterococcus faecalis assessed as inhibition of bacterial growth measured after 24 hrs by CLSI-based microdilution method; assay type: functional
[28] = Inhibition of Bordetella pertussis Adenylate cyclase toxin in mouse J774.A1 cells; assay type: cell-based
[29] = Inhibition of Bordetella pertussis Adenylate cyclase toxin
[30] = target: T1, Carbonic anhydrase 2 (Homo sapiens, UniProt P00918); assay: Binding affinity to CA2 (unknown origin) assessed as inhibition constant
[31] = target: T1, Carbonic anhydrase 2; assay: Binding affinity to human CA2 in U2OS cells assessed as inhibition constant; assay type: cell-based
[32] = system: Staphylococcus aureus; assay: Antibacterial activity against Staphylococcus aureus ATCC 25923 assessed as reduction in microbial growth after 24 hrs by two-fold serial dilution method; assay type: functional
[33] = system: Candida albicans; assay: Antifungal activity against Candida albicans ATCC 28367 assessed as reduction in fungal growth incubated for 24 hrs by CLSI based analysis; assay type: functional
[34] = system: Escherichia coli; assay: Antibacterial activity against Escherichia coli assessed as minimum bactericidal concentration incubated for 24 hrs; assay type: functional
[35] = system: Bacillus subtilis; assay: Antibacterial activity against Bacillus subtilis ATCC 6633 assessed as reduction in microbial growth after 24 hrs by two-fold serial dilution method; assay type: functional
[36] = system: Bacillus subtilis; assay: Antibacterial activity against Bacillus subtilis ATCC 6633 assessed as minimum bactericidal concentration incubated for 24 hrs; assay type: functional
[37] = system: Escherichia coli; assay: Antibacterial activity against Escherichia coli JW 1772 assessed as reduction in microbial growth after 24 hrs by two-fold serial dilution method; assay type: functional
[38] = system: Nakaseomyces glabratus; assay: Antifungal activity against Candida glabrata ATCC 15126 assessed as reduction in fungal growth incubated for 24 hrs by CLSI based analysis; assay type: functional
[39] = system: Salmonella typhimurium; assay: Antibacterial activity against Salmonella typhimurium DT104 ATCC 14028 assessed as reduction in microbial growth measured after 24 hrs by CLSI-based method; assay type: functional, Salmonella enterica subsp. enterica serovar Typhimurium; settings: Salmonella enterica
[40] = system: Staphylococcus aureus; assay: Bactericidal activity against Staphylococcus aureus ATCC 25923 assessed as reduction in bacterial cell growth incubated for 24 hrs by CLSI-based analysis; assay type: functional
[41] = system: Acinetobacter baumannii; assay: Antibacterial activity against Acinetobacter baumannii assessed as reduction in bacterial growth by Mueller-Hinton broth microdilution method; assay type: functional, organism-based
[42] = system: Staphylococcus aureus; assay: Antibacterial activity against methicillin-susceptible Staphylococcus aureus assessed as reduction in bacterial cell growth; assay type: functional
[43] = system: Acinetobacter baumannii; assay: Antibacterial activity against Acinetobacter baumannii assessed as reduction in bacterial growth measured after 24 hrs by Mueller-Hinton broth dilution method; assay type: functional
[44] = system: Plasmodium falciparum; assay: Antiplasmodial activity against Plasmodium falciparum assessed as parasitic growth inhibition; assay type: functional, organism-based
[45] = system: Neisseria gonorrhoeae; assay: Antibacterial activity against Neisseria gonorrhoeae ATCC 49226 assessed as reduction in bacterial growth; assay type: functional
[46] = system: Staphylococcus aureus; assay: Antibacterial activity against methicillin-Staphylococcus aureus ATCC 43300 assessed as reduction in bacterial growth measured after 24 hrs by broth microdilution method; assay type: functional

Structure (SMILES): CCCCCC[P+](/C=C(\c1ccccc1)c1cc(Cl)ccc1O)(c1ccccc1OC)c1ccccc1OC
MIC [1]: < 1 µM

MIC [2]: 0.15 µg/mL (≈ 0.451 µM) | MIC [3]: 0.15 µg/mL (≈ 0.451 µM) | MIC [4]: 0.15 µg/mL (≈ 0.451 µM) | MIC [5]: 0.15 µg/mL (≈ 0.451 µM)
Structure (SMILES): Cn1nccc1CP(=O)(Cc1ccnn1C)Cc1ccnn1C

Structure (SMILES): C[C@H](N)C(=O)N[C@@H](C)C(=O)N[C@@H](C)P(=O)(O)O
MIC90 [6]: 0.5 µg/mL (≈ 1.87 µM) | MIC90 [7]: 4 µg/mL | MIC90 [8]: 0.25 µg/mL (≈ 0.936 µM) | MIC90 [9]: 2 µg/mL (≈ 7.48 µM) | MIC90 [10]: 8 µg/mL (≈ 29.9 µM)

Structure (SMILES): CCC(CP(=O)(O)C(C)N)C(=O)O (stereo not drawn)
Ki [11]: 90 nM

Structure (SMILES): Cc1ncc(C[n+]2csc(CCOP(=O)(O)CP(=O)(O)O)c2C)c(N)n1
Kd [12]: 20 nM

Structure (SMILES): CCCCCCCC[P+](CCCC)(CCCCCCCC)CCCCCCCC.CS(=O)(=O)[O-]
inhibition zone (IZ) [13]: 14 mm | inhibition zone (IZ) [14]: 14 mm

Structure (SMILES): CN(C)CP(=O)(O)O
Ki [15]: 13000 nM

Structure (SMILES): CCOP(=O)(OCC)C(Nc1ncc(-c2cc3ccccc3oc2=O)s1)c1ccccc1Br (stereo not drawn)
MIC [16]: 0.125 µg/mL | MIC [17]: 0.125 µg/mL | MIC [18]: 0.125 µg/mL | MIC [19]: 0.125 µg/mL | MIC [20]: 0.125 µg/mL | MIC [21]: 0.125 µg/mL

Structure (SMILES): Cc1ncc(Cn2cc(CCOP(=O)(O)CP(=O)(O)O)nn2)c(N)n1
Kd [12]: 9 nM

Structure (SMILES): COP(=O)(CCSC(C)=O)NCc1ccccn1 (stereo not drawn)
IC50 [22]: 86000 nM

Structure (SMILES): CN(C)CP(C)(=O)O [(DIMETHYLAMINO)METHYL(METHYL)PHOSPHINIC ACID]
Ki [15]: 620 nM

Structure (SMILES): CCCCc1nc(Cl)c(C(Nc2ccc(S(N)(=O)=O)cc2)P(=O)(OCC)OCC)n1Cc1ccc(Cl)cc1 (stereo not drawn)
MIC [23]: 4 µg/mL (≈ 6.63 µM) | MIC [24]: 2 µg/mL (≈ 3.31 µM) | MIC [25]: 4 µg/mL (≈ 6.63 µM) | MIC [26]: 4 µg/mL (≈ 6.63 µM) | MIC [27]: 4 µg/mL (≈ 6.63 µM)

Structure (SMILES): Nc1ncnc2c1ncn2CCOCP(=O)(O)OP(=O)(O)OP(=O)(O)O [ADEFOVIR DIPHOSPHATE]
IC50 [28]: 150 nM | IC50 [29]: 18 nM

Structure (SMILES): COCCOP(N)(=O)c1ccccc1 (stereo not drawn)
Ki [30]: 20 nM | Ki [31]: 32800 nM

Structure (SMILES): O/N=C1\CCCC1P(=S)(c1ccccc1)c1ccccc1 (stereo not drawn)
MIC [32]: 0.1 µg/mL | MIC [33]: 0.1 µg/mL (≈ 0.317 µM) | MBC [34]: 2 µg/mL (≈ 6.34 µM) | MIC [35]: 0.1 µg/mL | MBC [36]: 2 µg/mL (≈ 6.34 µM) | MIC [37]: 0.1 µg/mL | MIC [38]: 0.1 µg/mL (≈ 0.317 µM) | MIC [39]: 0.1 µg/mL | MBC [40]: 2 µg/mL (≈ 6.34 µM)

Structure (SMILES): CCCCCCCCCC[P+](CCCCCC[P+](CCCCCCCCCC)(c1ccccc1)c1ccccc1)(c1ccccc1)c1ccccc1
IC50 [41]: 3000 nM

MIC [32]: 0.1 µg/mL | MIC [33]: 0.1 µg/mL (≈ 0.334 µM) | MIC [35]: 0.1 µg/mL | MIC [37]: 0.1 µg/mL | MIC [38]: 0.1 µg/mL (≈ 0.334 µM) | MIC [39]: 0.1 µg/mL
Structure (SMILES): O=P(c1ccccc1)(c1ccccc1)C1CCC/C1=N\O (stereo not drawn)
MBC [34]: 2 µg/mL (≈ 6.68 µM) | MBC [36]: 2 µg/mL (≈ 6.68 µM) | MBC [40]: 2 µg/mL (≈ 6.68 µM)

Structure (SMILES): CCCCCCCCCC[P+](C)(C)CCCCCCCCCC.[Cl-] [DIDECYLDIMETHYLPHOSPHONIUM CHLORIDE]
MIC [42]: 0.78 µg/mL

MIC [43]: 6.25 µM
Structure (SMILES): CCCCCCCCCCCC[P+](c1ccccc1)(c1ccccc1)c1ccccc1

Structure (SMILES): CCCCCCCC(=O)OCOP(=O)(CCCC(=O)N(C)O)OCOC(=O)CCCCCCC
IC50 [44]: 50 nM

Structure (SMILES): CC(C)OC(=O)[C@H](Cc1ccccc1)NP(=O)(COCCn1cnc2c(N)nc(F)nc21)N[C@@H](Cc1ccccc1)C(=O)OC(C)C
IC50 [29]: 145 nM

MIC [45]: 0.004 µg/mL (≈ 0.00253 µM)
Structure (SMILES): C=C(C/C=C(\C)CCC=C(C)C)CCC(C)(C)/C=C/CC/C(C)=C\CO[C@H](COP(=O)(O)O[C@H]1O[C@H](C(N)=O)[C@@](C)(O)[C@H](OC(N)=O)[C@H]1O[C@@H]1O[C@H](CO[C@@H]2O[C@H](CO)[C@@H](O)[C@H](O)[C@H]2O)[C@@H](O[C@@H]2O[C@H](C)[C@@H](O[C@@H]3O[C@H](C(=O)NC4=C(O)CCC4=O)[C@H](O)[C@H](O)[C@H]3O)[C@H](O)[C@H]2NC(C)=O)[C@H](O)[C@H]1NC(C)=O)C(=O)O

MIC [46]: 0.25 µg/mL
Structure (SMILES): CS(=O)(=O)[O-].O=C(CCc1ccc(O)c(O)c1)NCCCCCCCCCC[P+](c1ccccc1)(c1ccccc1)c1ccccc1
